This note sets out measurements from patent publication US10124004B2, “Pyrido[3,4-d]pyrimidine derivative and pharmaceutically acceptable salt thereof” (Teijin Pharma Limited, priority 2015, dated 2018).

SMILES strings stand for the structures. Like-named read-outs stand apart in the source and are kept apart here.

This assay deals with T1, CDK4/cyclin D3 (Homo sapiens, UniProt P11802).
T1 construct: purchased Carna Biosciences, Inc. QS S Assist CDK4/Cyclin D3_FP Kit
Briefly: Human CDK4/cyclin D3 inhibitory activity (QS S Assist CDK4/Cyclin D3_FP Kit, IMAP fluorescence polarization). It counts as biochemical. How it is done:
Human CDK4/Cyclin D3 Inhibitory Activity
Each compound was analyzed for CDK4/cyclin D3 inhibitory activity with an assay kit (QS S Assist CDK4/Cyclin D3_FP Kit, available from Carna Biosciences, Inc.). This assay kit determines kinase activity on the basis of the IMAP technology by Molecular Devices. Specifically, the kinase activity is determined through quantification of a variation in fluorescent polarization caused by binding of a kinase-phosphorylated fluorescent substance to an IMAP-binding reagent.
Each solution was prepared with the 10× assay buffer attached to the kit or a separately prepared assay buffer having the same composition as the assay buffer attached to the kit. An assay buffer was prepared by 10-fold dilution of the 10× assay buffer with distilled water. The assay buffer contains 20 mM HEPES (pH 7.4), 0.01% Tween20, and 2 mM dithiothreitol. A test compound solution was prepared by dilution of the test compound with dimethyl sulfoxide (DMSO) to a concentration 100 times higher than the final concentration and then 25-fold dilution with the assay buffer to a concentration four times higher than the final concentration. An ATP/substrate/Metal solution was prepared by five-fold dilution of the 5×ATP/substrate/Metal solution attached to the kit with the assay buffer. An enzyme solution was prepared by dilution of the CDK4/cyclin D3 attached to the kit with the assay buffer to a concentration twice higher than the final concentration (final concentration of CDK4/cyclin D3:12.5 to 25 ng/well). A detection reagent was prepared by five-fold dilution of each of 5× IMAP-binding buffer A and 5×IMAP-binding buffer B with distilled water, mixing of IMAP-binding buffer A with IMAP-binding buffer B at a ratio of 85:15, and 400-fold dilution of the IMAP-binding reagent with the mixed buffer.
The test compound solution (5 μL/well) and the ATP/substrate/Metal solution (5 μL/well) were added to a 384-well plate, and the enzyme solution or the assay buffer (10 μL/well) was added to the plate (total amount of the reaction mixture: 20 μL/well) for initiation of enzymatic reaction. […] The reaction was performed at room temperature for 45 minutes, and the detection reagent (60 μL/well) was then added to the plate, followed by further reaction for 30 minutes at room temperature under light shielding conditions. Subsequently, fluorescent polarization was determined with a microplate reader at an excitation wavelength of 485 nm and an emission wavelength of 535 nm.
The percent inhibition of enzyme activity was calculated for each test compound (note: enzyme activity=100% in the case of addition of the enzyme solution and addition of DMSO instead of the test compound solution, whereas enzyme activity=0% in the case of addition of the assay buffer instead of the enzyme solution, and addition of DMSO instead of the test compound solution). The percent inhibition of enzyme activity was fitted to a dose-response curve, to determine a 50% inhibitory concentration against CDK4/cyclin D3.
In each table, “+++” corresponds to IC50<10 nM, “++” 10 nM≤IC50<100 nM, and “+” 100 nM≤IC50.
A general note: Polarisation of emitted light reports the rotation of a fluorescent probe.

The mark [1] stands for this setting: Human CDK4/cyclin D3 inhibitory activity, read-out: CDK4 Activity symbol.
The mark [2] stands for this setting: 50% inhibitory concentration against CDK4/cyclin D3, given as class symbol.

T1 sequence (P11802 whole entry): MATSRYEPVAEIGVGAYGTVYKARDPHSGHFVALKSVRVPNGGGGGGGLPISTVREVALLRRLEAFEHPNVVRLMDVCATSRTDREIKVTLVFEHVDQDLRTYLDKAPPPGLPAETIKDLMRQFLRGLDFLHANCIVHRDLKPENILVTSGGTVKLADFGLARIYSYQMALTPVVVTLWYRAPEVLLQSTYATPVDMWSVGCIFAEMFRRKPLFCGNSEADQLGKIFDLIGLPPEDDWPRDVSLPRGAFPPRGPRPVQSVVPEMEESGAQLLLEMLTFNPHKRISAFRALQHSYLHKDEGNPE
T1 sequence (P30281 whole entry partner): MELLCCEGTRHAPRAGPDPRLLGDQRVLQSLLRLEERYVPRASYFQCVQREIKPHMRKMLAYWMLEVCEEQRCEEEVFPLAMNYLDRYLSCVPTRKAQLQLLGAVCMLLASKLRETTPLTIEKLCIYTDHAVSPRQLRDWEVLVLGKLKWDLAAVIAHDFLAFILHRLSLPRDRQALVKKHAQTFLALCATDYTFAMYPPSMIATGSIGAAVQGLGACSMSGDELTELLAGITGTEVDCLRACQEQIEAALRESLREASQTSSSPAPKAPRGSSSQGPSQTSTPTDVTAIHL

As for `COC(C)c1cc2cnc(Nc3ccc(O[C@@H]4CCNC[C@H]4F)cn3)nc2c(NC(C)C)n1` (relative stereo) [Compound 459], the IC50 under setting [1] is below 10 nM.
With `COC(C)c1cc2cnc(Nc3ccc(O[C@H]4CCNC[C@H]4F)cn3)nc2c(NC(C)C)n1` (relative stereo) [Compound 460], the IC50 under setting [1] is below 10 nM.
With `CC(C)Nc1nc(C(C)O)cc2cnc(Nc3ccc(N4CCCC(O)C4)nn3)nc12` (single isomer, unassigned) [Compound 582], under setting [1], the IC50 was below 10 nM.
Turning to `CC(O)c1cc2cnc(Nc3ccc(OCCN(C)C)cn3)nc2c(NC2CCC(C)(C)OC2)n1` (single isomer, unassigned) [Compound 689], the IC50 under setting [2] was below 10 nM.
`CC(O)c1cc2cnc(Nc3ccc(OCCN(C)C)cn3)nc2c(NC2CCC(C)(C)OC2)n1` (single isomer, unassigned) [Compound 690] displayed an IC50 under setting [2] below 10 nM.
For the compound `CC(C)Nc1nc(C(C)O)cc2cnc(Nc3ccc(N4CCC(O)C(C)C4)nn3)nc12` (single isomer, unassigned) [Compound 704], the IC50 under setting [2] is below 10 nM.
Take `CC(C)Nc1nc(C(C)O)cc2cnc(Nc3ccc(N4CCC(O)C(C)C4)nn3)nc12` (single isomer, unassigned) [Compound 705]: the IC50 under setting [2] is below 10 nM.
Regarding `CC(C)Nc1nc(C(F)F)cc2cnc(Nc3ccc(C4CCOCC4)cn3)nc12` [Compound 160], the IC50 under setting [1] was below 10 nM.
On to `CO[C@H](C)c1cc2cnc(Nc3ccc(N4CCNCC4=O)nn3)nc2c(NC(C)C)n1` [Compound 356], for which, under setting [1], the IC50 lay in the range of 10 to 100 nM.
As to `CO[C@H](C)c1cc2cnc(Nc3ccc(NC4CCNC4)nn3)nc2c(NC(C)C)n1` (stereo partly drawn) [Compound 357], the IC50 under setting [1] is below 10 nM.
On to `CO[C@H](C)c1cc2cnc(Nc3ccc(N4CCNCC4)nn3)nc2c(NC2CCS(=O)(=O)CC2)n1` [Compound 359], for which the IC50 under setting [1] lay within 10 to 100 nM.
Turning to `CO[C@H](C)c1cc2cnc(Nc3ccc(CN4CCNCC4)cn3)nc2c(NC2CCS(=O)(=O)CC2)n1` [Compound 361], under setting [1], the IC50 was below 10 nM.
In the case of `CO[C@H](C)c1cc2cnc(Nc3ccc(N4CCNC(=O)C4)nn3)nc2c(NC(C)C)n1` [Compound 362], the IC50 under setting [1] was in the range of 10 to 100 nM.
As to `CO[C@H](C)c1cc2cnc(Nc3ncc(N4CCNCC4)cn3)nc2c(NC(C)C)n1` [Compound 374], the IC50 under setting [1] lay within 10 to 100 nM.
Regarding `COCC(C)(C)Nc1nc([C@@H](C)O)cc2cnc(Nc3ncc(N4CCNCC4)cn3)nc12` [Compound 375], under setting [1], the IC50 is at least 100 nM.
On to `CO[C@H](C)c1cc2cnc(Nc3ccc(N(C)C(=O)C4CCNCC4)cn3)nc2c(NC(C)C)n1` [Compound 377], for which the IC50 under setting [1] lay in the range of 10 to 100 nM.
Same read-out and setting: in the case of `COC(=O)[C@H]1CC[C@H](CNc2nc(C(C)OC)cc3cnc(Nc4ccc(CN5CCNCC5)cn4)nc23)CC1` (stereo partly drawn) [Compound 390] it was below 10 nM; in that of `COC(C)c1cc2cnc(Nc3ccc(CN4CCNCC4)cn3)nc2c(N(C)C(C)C)n1` (stereo not drawn) [Compound 391], 10 to 100 nM; in that of `COC(C)c1cc2cnc(Nc3ccc(CN4CCNCC4)cn3)nc2c(NCC(C)C)n1` (stereo not drawn) [Compound 392], below 10 nM.
On the same count and under the same terms, then `COC(C)c1cc2cnc(Nc3ccc(CN4CCNCC4)cn3)nc2c(NCCN2CCNC2=O)n1` (stereo not drawn) [Compound 393], with 10 to 100 nM; and `COC(C)c1cc2cnc(Nc3ccc(CN4CCNCC4)cn3)nc2c(NCC(C)(C)OC)n1` (stereo not drawn) [Compound 394], with 10 to 100 nM.
Turning to `COC(C)c1cc2cnc(Nc3ccc(CN4CCNCC4)cn3)nc2c(NCC2COC2)n1` (stereo not drawn) [Compound 396], the IC50 under setting [1] was at least 100 nM.
`COC(C)c1cc2cnc(Nc3ccc(CN4CCNCC4)cn3)nc2c(NC2CCCC(O)C2)n1` (stereo not drawn) [Compound 397]: the IC50 under setting [1] was below 10 nM.
Consider `COC(C)c1cc2cnc(Nc3ccc(CN4CCNCC4)cn3)nc2c(NCC2CCCCO2)n1` (stereo not drawn) [Compound 398], for which, under setting [1], the IC50 was below 10 nM.
`COC(C)c1cc2cnc(Nc3ccc(CN4CCNCC4)cn3)nc2c(NC2CCNCC2)n1` (stereo not drawn) [Compound 399]: under setting [1], the IC50 lay within 10 to 100 nM.
On to `COC(C)c1cc2cnc(Nc3ccc(CN4CCNCC4)cn3)nc2c(Nc2ccc(C#N)cc2)n1` (stereo not drawn) [Compound 401], for which, under setting [1], the IC50 is 10 to 100 nM.
Turning to `COC(C)c1cc2cnc(Nc3ccc(CN4CCNCC4)cn3)nc2c(NCC2CCCC(O)C2)n1` (stereo not drawn) [Compound 402], under setting [1], the IC50 was below 10 nM.
For `COC(C)c1cc2cnc(Nc3ccc(CN4CCNCC4)cn3)nc2c(NCC2CCC(=O)N2)n1` (stereo not drawn) [Compound 403], the IC50 under setting [1] is 10 to 100 nM.
Same read-out and setting: then `COC(C)c1cc2cnc(Nc3ccc(CN4CCNCC4)cn3)nc2c(NC(C)C2CCOC2)n1` (stereo not drawn) [Compound 404], with below 10 nM.
With `COC(C)c1cc2cnc(Nc3ccc(CN4CCNCC4)cn3)nc2c(NC2CCCN(C(C)=O)C2)n1` (stereo not drawn) [Compound 405], the IC50 under setting [1] was in the range of 10 to 100 nM.
`COC(C)c1cc2cnc(Nc3ccc(CN4CCNCC4)cn3)nc2c(NCC2CNC(=O)C2)n1` (stereo not drawn) [Compound 406]: under setting [1], the IC50 was in the range of 10 to 100 nM.
For `COC(C)c1cc2cnc(Nc3ccc(CN4CCNCC4)cn3)nc2c(NC2CCCN(C)C2)n1` (stereo not drawn) [Compound 407], under setting [1], the IC50 was in the range of 10 to 100 nM.
For `COC(C)c1cc2cnc(Nc3ccc(CN4CCNCC4)cn3)nc2c(NC[C@@H]2CCCO2)n1` (stereo partly drawn) [Compound 408], the IC50 under setting [1] lay in the range of 10 to 100 nM.
Take `COC(C)c1cc2cnc(Nc3ccc(CN4CCNCC4)cn3)nc2c(NC(C)C2CCCO2)n1` (stereo not drawn) [Compound 409]: the IC50 under setting [1] is below 10 nM.
As to `COC(C)c1cc2cnc(Nc3ccc(CN4CCNCC4)cn3)nc2c(NC2CCOC(C)(C)C2)n1` (stereo not drawn) [Compound 410], the IC50 under setting [1] is below 10 nM.
In the case of `COC(C)c1cc2cnc(Nc3ccc(CN4CCNCC4)cn3)nc2c(NC[C@H]2CCCO2)n1` (stereo partly drawn) [Compound 411], the IC50 under setting [1] is below 10 nM.
`COC(C)c1cc2cnc(Nc3ccc(CN4CCNCC4)cn3)nc2c(Nc2cccc(C#N)c2)n1` (stereo not drawn) [Compound 412]: the IC50 under setting [1] is below 10 nM.
Turning to `COC(C)c1cc2cnc(Nc3ccc(CN4CCNCC4)cn3)nc2c(NC2(CO)CCCC2)n1` (stereo not drawn) [Compound 413], the IC50 under setting [1] was below 10 nM.
Regarding `COC(C)c1cc2cnc(Nc3ccc(CN4CCNCC4)cn3)nc2c(NCCN2CCCC2=O)n1` (stereo not drawn) [Compound 414], the IC50 under setting [1] lay in the range of 10 to 100 nM.
Turning to `COC(C)c1cc2cnc(Nc3ccc(CN4CCNCC4)cn3)nc2c(NC2CN3CCC2CCOC3=O)n1` (stereo not drawn) [Compound 415], the IC50 under setting [1] is below 10 nM.
Turning to `COC(C)c1cc2cnc(Nc3ccc(CN4CCNCC4)cn3)nc2c(NCc2ccc(=O)[nH]c2)n1` (stereo not drawn) [Compound 416], under setting [1], the IC50 was in the range of 10 to 100 nM.
Consider `COC(C)c1cc2cnc(Nc3ccc(CN4CCNCC4)cn3)nc2c(NC2CCCC2)n1` (stereo not drawn) [Compound 417], for which the IC50 under setting [1] was below 10 nM.
On the same count and under the same terms, in the case of `COC(C)c1cc2cnc(Nc3ccc(CN4CCNCC4)cn3)nc2c(NCC(C)(C)C)n1` (stereo not drawn) [Compound 418] it was below 10 nM; in that of `COC(C)c1cc2cnc(Nc3ccc(CN4CCNCC4)cn3)nc2c(NC2CNC(=O)C2)n1` (stereo not drawn) [Compound 419], 10 to 100 nM; in that of `COC(C)c1cc2cnc(Nc3ccc(CN4CCNCC4)cn3)nc2c(NC2(C)CCOCC2)n1` (stereo not drawn) [Compound 420], below 10 nM.
Regarding `COC(C)c1cc2cnc(Nc3ccc(CN4CCNCC4)cn3)nc2c(NC2CCC(=O)NC2)n1` (stereo not drawn) [Compound 421], the IC50 under setting [1] fell in the range of 10 to 100 nM.
Turning to `COC(C)c1cc2cnc(Nc3ccc(CN4CCNCC4)cn3)nc2c(NC2CCNC(=O)C2)n1` (stereo not drawn) [Compound 422], under setting [1], the IC50 fell in the range of 10 to 100 nM.
Consider `CCC(C)Nc1nc(C(C)OC)cc2cnc(Nc3ccc(CN4CCNCC4)cn3)nc12` (stereo not drawn) [Compound 423], for which the IC50 under setting [1] is below 10 nM.
On the same count and under the same terms, then `O[C@H]1CC[C@@H](Nc2nc(C(F)F)cc3cnc(Nc4ccc(CN5CCNCC5)cn4)nc23)CC1` [Compound 424], with below 10 nM; and `O[C@H]1CC[C@@H](Nc2nc(C(F)F)cc3cnc(Nc4ccc(N5CCNCC5)nn4)nc23)CC1` [Compound 425], with below 10 nM.
On to `CN(C)CCOc1ccc(Nc2ncc3cc(C(F)F)nc(N[C@H]4CC[C@@H](O)CC4)c3n2)nc1` [Compound 426], for which the IC50 under setting [1] is below 10 nM.
For `COC(C)c1cc2cnc(Nc3ccc(CN4CCNCC4)cn3)nc2c(NC2CCC(O)C2)n1` (stereo not drawn) [Compound 427], the IC50 under setting [1] is below 10 nM.
For the compound `COC(C)c1cc2cnc(Nc3ccc(CN4CCNCC4)cn3)nc2c(NCCC2CCOCC2)n1` (stereo not drawn) [Compound 428], under setting [1], the IC50 is below 10 nM.
For the compound `COC(C)c1cc2cnc(Nc3ccc(CN4CCNCC4)cn3)nc2c(NCCC2CCCO2)n1` (stereo not drawn) [Compound 429], under setting [1], the IC50 is below 10 nM.
